{"source": "patent US20090088460A1", "about": "“Administration of E-3[3-[N-(4-methoxybenzenesulfonyl)-N-isopropylamino]phenyl]-3-(3-pyridyl)propenohydroxamic acid for preventing and/or treating inflammatory cutaneous pathologies/afflictions” (GALDERMA RESEARCH &DEVELOPMENT, priority 2007, published 2009)", "key": {"[1]": {"system": "arachidonic acid-induced mouse ear edema", "assay": "Arachidonic acid-induced mouse ear edema test, single topical application", "format": "in vivo", "conditions": "Balb/c mice; for reduction of the arachidonic acid-induced ear edema: 20 μl on right ear", "procedure": "Evaluation of the Anti-Inflammatory Activity of W3646 (Compound (I)) after Single Topical Application in the Arachidonic Acid-Induced Mouse Ear Edema Test on Balb/c Mice\nThe arachidonic acid is dissolved in a mixture of THF/methanol at 4%.\nThe test compound is dissolved in the solution of arachidonic acid (AA) at the final concentration, and tested at concentrations of 0.1, 0.3 and 1%.\n20 μl of the solution are applied to the inner face of the right ear.\nThe thickness of the ear is measured at T+1 h, T+2 h and T+4 h."}, "[2]": {"system": "TPA-induced mouse ear edema", "assay": "TPA-induced mouse ear edema test, single topical application", "format": "in vivo", "conditions": "Balb/c mice; for reduction of the TPA-induced ear edema: T+6 h", "procedure": "Evaluation of the Anti-Inflammatory Activity of W3646 (Compound (I)) after Single Topical Application in the TPA-Induced Mouse Ear Edema Test on Balb/c Mice (TPA=Tetradecanoylphorbol Acetate)\nThe edema is induced by single application of 20 μl of TPA dissolved in acetone at 0.01%. […]\nA positive control, β-methasone valerate (VdB), is also tested.\nThe thickness of the mouse ear is measured at T+6 h."}}}
{"smiles": "COc1ccc(S(=O)(=O)N(c2cccc(/C(=C\\C(=O)NO)c3cccnc3)c2)C(C)C)cc1", "note": "[W3646, E-3-[3-[N-(4-methoxybenzene-sulfonyl)-N-isopropylamino]phenyl]-3-(3-pyridyl)-propenohydroxamic acid]", "values": [{"measurement": "reduction of the arachidonic acid-induced ear edema", "setting": "[1]; 0.1% topical in 4% arachidonic acid solution, NS", "result": 16, "unit": "%"}, {"measurement": "reduction of the arachidonic acid-induced ear edema", "setting": "[1]; 0.3% topical in 4% arachidonic acid solution, *", "result": 49, "unit": "%"}, {"measurement": "reduction of the arachidonic acid-induced ear edema", "setting": "[1]; 1% topical in 4% arachidonic acid solution, **", "result": 71, "unit": "%"}, {"measurement": "reduction of the TPA-induced ear edema", "setting": "[2]; 0.1% in 0.01% TPA solution, NS", "result": 26, "unit": "%"}, {"measurement": "reduction of the TPA-induced ear edema", "setting": "[2]; 0.3% in 0.01% TPA solution, **", "result": 53, "unit": "%"}, {"measurement": "reduction of the TPA-induced ear edema", "setting": "[2]; 1% in 0.01% TPA solution, ***", "result": 79, "unit": "%"}]}
{"smiles": "CCCCC(=O)O[C@]1(C(=O)CO)[C@@H](C)C[C@H]2[C@@H]3CCC4=CC(=O)C=C[C@]4(C)[C@@]3(F)[C@@H](O)C[C@@]21C", "note": "[betamethasone valerate, reference compound]", "values": [{"measurement": "reduction in the TPA-induced ear edema", "setting": "[2]; 0.01% diluted in 0.01% TPA solution, ear thickness at T+6 h, ***", "result": 93, "unit": "%"}]}
{"smiles": "COc1ccc2c(c1)c(CC(=O)O)c(C)n2C(=O)c1ccc(Cl)cc1", "note": "[Indomethacin, reference compound]", "values": [{"measurement": "inhibition of the ear edema caused by arachidonic acid", "setting": "[1]; indomethacin at 5%, single topical application in 4% arachidonic acid solution, ear thickness measured T+1 h, T+2 h, T+4 h", "result": 92, "unit": "%"}]}
